pIC50: −log10 of the molar value.

Sequence of recombinant CD73 (P21589 27-547): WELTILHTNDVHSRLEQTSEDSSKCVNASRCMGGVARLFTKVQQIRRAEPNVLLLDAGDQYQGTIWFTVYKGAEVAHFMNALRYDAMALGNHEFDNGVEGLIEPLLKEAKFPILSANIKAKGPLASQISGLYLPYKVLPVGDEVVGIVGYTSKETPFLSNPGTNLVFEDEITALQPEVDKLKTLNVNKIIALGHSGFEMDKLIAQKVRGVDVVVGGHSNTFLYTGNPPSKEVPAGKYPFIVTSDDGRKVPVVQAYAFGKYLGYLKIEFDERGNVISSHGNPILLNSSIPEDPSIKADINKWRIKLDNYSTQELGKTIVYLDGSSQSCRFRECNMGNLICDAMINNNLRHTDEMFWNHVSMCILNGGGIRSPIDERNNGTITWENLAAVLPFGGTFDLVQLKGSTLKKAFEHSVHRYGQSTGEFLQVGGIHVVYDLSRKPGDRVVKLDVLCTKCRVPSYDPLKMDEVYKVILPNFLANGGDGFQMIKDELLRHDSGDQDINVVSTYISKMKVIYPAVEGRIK

For this experiment, the target named is recombinant CD73 (Homo sapiens (Human), UniProt P21589). The experiment in a line: Assay 2: Inhibition of the CD73 enzyme in vitro (0.05 nM CD73, 1 hour 37° C., Malachite Green). The following applies: 0.05 nM CD73, 50 μM AMP, 1 hour at 37° C. The experiment is classed as biochemical. Put shortly:
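Soluble recombinant CD73 reactions ran 1 hour at 37° C. Malachite Green was then added, and absorbance at 630 nm was read after 5 min at room temperature. Inorganic phosphate was quantified from a phosphate standard curve.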
Take `C#C[C@@]1(O)[C@@H](COC(Cc2ccc(-c3cccn(CCO)c3=O)cc2)(C(=O)O)C(=O)O)O[C@@H](n2cnc3c(NC(C)C)nc(Cl)nc32)[C@@H]1O` [Example 153, 2-(((2R,3S,4R,5R)-5-(2-chloro-6-(isopropylamino)-9H-purin-9-yl)-3-ethynyl-3,4-dihydroxytetrahydrofuran-2-yl)methoxy)-2-(4-(1-(2-hydroxyethyl)-2-oxo-1,2-dihydropyridin-3-yl)benzyl)malonic acid]: the pIC50 (usually the IC50 on a negative log10 scale, so that one unit is a factor of ten) is 9.32. As for `C#C[C@@]1(O)[C@@H](COC(Cc2ccccc2)(C(=O)O)C(=O)O)O[C@@H](n2cnc3c(N4CCC[C@H]4CO)nc(Cl)nc32)[C@@H]1O` [Example 104, 2-benzyl-2-(((2R,3S,4R,5R)-5-(2-chloro-6-((S)-2-(hydroxymethyl)-pyrrolidin-1-yl)-9H-purin-9-yl)-3-ethynyl-3,4-dihydroxytetrahydrofuran-2-yl)methoxy)malonic acid], the pIC50 was 8.70. With `C#C[C@@]1(O)[C@@H](COC(Cc2ccccc2)(C(=O)O)C(=O)O)O[C@@H](n2cnc3c(N)nc(SCC)nc32)[C@@H]1O` [Example 145, 2-(((2R,3S,4R,5R)-5-(6-amino-2-(ethylthio)-9H-purin-9-yl)-3-ethynyl-3,4-dihydroxytetrahydrofuran-2-yl)methoxy)-2-benzylmalonic acid] the figure was 6.97.

For the compound `C#C[C@@]1(O)[C@@H](COC(Cc2ccc(N3CCCNC3=O)cc2)(C(=O)O)C(=O)O)O[C@@H](n2ccc(N)nc2=O)[C@@H]1O` [Example 135, 2-(((2R,3S,4R,5R)-5-(4-amino-2-oxopyrimidin-1(2H)-yl)-3-ethynyl-3,4-dihydroxytetrahydrofuran-2-yl)methoxy)-2-(4-(2-oxotetrahydropyrimidin-1 (2H)-yl)benzyl)malonic acid], the pIC50 is 7.04. For the compound `C#C[C@@]1(O)[C@@H](COC(Cc2ccccc2)(C(=O)O)C(=O)O)O[C@@H](n2cnc3c(N4CCC4)nc(Cl)nc32)[C@@H]1O` [Example 88, 2-(((2R,3S,4R,5R)-5-(6-(azetidin-1-yl)-2-chloro-9H-purin-9-yl)-3-ethynyl-3,4-dihydroxytetrahydrofuran-2-yl)methoxy)-2-benzylmalonic acid], the pIC50 is 8.92. Consider `C#C[C@@]1(O)[C@@H](COC(Cc2ccccc2)(C(=O)O)C(=O)O)O[C@@H](n2cnc3ccc(C(F)(F)F)nc32)[C@@H]1O` [Example 125, 2-benzyl-2-(((2R,3S,4R,5R)-3-ethynyl-3,4-dihydroxy-5-(5-(trifluoromethyl)-3H-imidazo[4,5-b]pyridin-3-yl)tetrahydrofuran-2-yl)methoxy)malonic acid], for which the pIC50 is 6.63.

As for `C#C[C@@]1(O)[C@@H](CO[C@@](Cc2ccccc2)(C(=O)O)c2cscn2)O[C@@H](n2cnc3c(NCC4CC4)nc(Cl)nc32)[C@@H]1O` (single isomer, unassigned) [Example 173], the pIC50 is 6.95. For `C#C[C@@]1(O)[C@@H](COC(Cc2ccc(N3CCCN(C)C3=O)cc2)(C(=O)O)C(=O)O)O[C@@H](n2cnc3c(NCC4CC4)nc(Cl)nc32)[C@@H]1O` [Example 150, 2-(((2R,3S,4R,5R)-5-(2-chloro-6-((cyclopropylmethyl)amino)-9H-purin-9-yl)-3-ethynyl-3,4-dihydroxytetrahydrofuran-2-yl)methoxy)-2-(4-(3-methyl-2-oxotetrahydropyrimidin-1 (2H)-yl)benzyl)malonic acid], the pIC50 is 9.80. Turning to `C#C[C@@]1(O)[C@@H](COC(Cc2ccccc2)(C(=O)O)C(=O)O)O[C@@H](n2cnc3c(N[C@@H](C)CO)nc(Cl)nc32)[C@@H]1O` [Example 95, 2-benzyl-2-(((2R,3S,4R,5R)-5-(2-chloro-6-(((S)-1-hydroxypropan-2-yl)amino)-9H-purin-9-yl)-3-ethynyl-3,4-dihydroxytetrahydrofuran-2-yl)methoxy)malonic acid], the pIC50 is 8.15.

In the case of `C#C[C@@]1(O)[C@@H](COC(C)(C(=O)O)C(=O)O)O[C@@H](n2cnc3c(N)nc(Cl)nc32)[C@@H]1O` [Example 17, 2-(((2R,3S,4R,5R)-5-(6-amino-2-chloro-9H-purin-9-yl)-3-ethynyl-3,4-dihydroxytetrahydrofuran-2-yl)methoxy)-2-methylmalonic acid], the pIC50 was 6.46.

With `C#C[C@@]1(O)[C@@H](COC(Cc2ccccc2)(C(=O)O)C(=O)O)O[C@@H](n2cnc3c(N4CC[C@H](O)C4)nc(Cl)nc32)[C@@H]1O` [Example 65, 2-benzyl-2-(((2R,3S,4R,5R)-5-(2-chloro-6-((S)-3-hydroxypyrrolidin-1-yl)-9H-purin-9-yl)-3-ethynyl-3,4-dihydroxytetrahydrofuran-2-yl)methoxy)malonic acid], the pIC50 was 9.00. As to `C#C[C@@]1(O)[C@@H](COC(Cc2ccccc2)(C(=O)O)C(=O)O)O[C@@H](n2cnc3c(NCC(=O)O)nc(Cl)nc32)[C@@H]1O` [Example 76, 2-benzyl-2-(((2R,3S,4R,5R)-5-(6-((carboxymethyl)amino)-2-chloro-9H-purin-9-yl)-3-ethynyl-3,4-dihydroxytetrahydrofuran-2-yl)methoxy)malonic acid], the pIC50 was 8.22.

As for `C#C[C@@]1(O)[C@@H](COC(Cc2ccccc2)(C(=O)O)C(=O)O)O[C@@H](n2cnc3c(NC)nc(Cl)nc32)[C@@H]1O` [Example 71, 2-benzyl-2-(((2R,3S,4R,5R)-5-(2-chloro-6-(methylamino)-9H-purin-9-yl)-3-ethynyl-3,4-dihydroxytetrahydrofuran-2-yl)methoxy)malonic acid], the pIC50 was 8.22. Take `C#C[C@@]1(O)[C@@H](COC(C(=O)O)S(=O)(=O)c2ccccc2)O[C@@H](n2cnc3c(N4CCOCC4)nc(Cl)nc32)[C@@H]1O` (stereo partly drawn) [Example 119, 2-(((2R,3S,4R,5R)-5-(2-chloro-6-morpholino-9H-purin-9-yl)-3-ethynyl-3,4-dihydroxytetrahydrofuran-2-yl)methoxy)-2-(phenylsulfonyl)acetic acid]: the pIC50 was 5.34. Regarding `C#C[C@@]1(O)[C@@H](COC(Cc2ccc(-c3cccn(CCC)c3=O)cc2)(C(=O)O)C(=O)O)O[C@@H](n2cnc3c(NC)nc(Cl)nc32)[C@@H]1O` [Example 160, 2-(((2R,3S,4R,5R)-5-(2-chloro-6-(methylamino)-9H-purin-9-yl)-3-ethynyl-3,4-dihydroxytetrahydrofuran-2-yl)methoxy)-2-(4-(2-oxo-1-propy-1,2-dihydropyridin-3-yl)benzyl)malonic acid], the pIC50 is 9.51. With `C#C[C@@]1(O)[C@@H](COC(Cc2ccccc2)(C(=O)O)C(=O)O)O[C@@H](n2cnc3c(NCCc4ccccc4)nc(Cl)nc32)[C@@H]1O` [Example 70, 2-benzyl-2-(((2R,3S,4R,5R)-5-(2-chloro-6-(phenethylamino)-9H-purin-9-yl)-3-ethynyl-3,4-dihydroxytetrahydrofuran-2-yl)methoxy)malonic acid] the figure was 9.00; with `C#C[C@@]1(O)[C@@H](COC(Cc2ccccc2)(C(=O)O)C(=O)O)O[C@@H](n2cnc3c(NCC4(O)CCC4)nc(Cl)nc32)[C@@H]1O` [Example 40, 2-benzyl-2-(((2R,3S,4R,5R)-5-(2-chloro-6-(((1-hydroxycyclobutyl)-methyl)amino)-9H-purin-9-yl)-3-ethynyl-3,4-dihydroxytetrahydrofuran-2-yl)methoxy)malonic acid], 8.52. Regarding `C#C[C@@]1(O)[C@@H](COC(Cc2ccc(N3CCCNC3=O)cc2)(C(=O)O)C(=O)O)O[C@@H](n2ccc(=O)[nH]c2=O)[C@@H]1O` [Example 134, 2-(((2R,3S,4R,5R)-5-(2,4-dioxo-3,4-dihydropyrimidin-1(2H)-yl)-3-ethynyl-3,4-dihydroxytetrahydrofuran-2-yl)methoxy)-2-(4-(2-oxotetrahydropyrimidin-1 (2H)-yl)benzyl)malonic acid], the pIC50 is 7.80. Regarding `C#C[C@@]1(O)[C@@H](COC(Cc2ccccc2)(C(=O)O)C(=O)O)O[C@@H](n2cnc3c(NCc4ccccc4Cl)nc(Cl)nc32)[C@@H]1O` [Example 77, 2-benzyl-2-(((2R,3S,4R,5R)-5-(2-chloro-6-((2-chlorobenzyl)amino)-9H-purin-9-yl)-3-ethynyl-3,4-dihydroxytetrahydrofuran-2-yl)methoxy)malonic acid], the pIC50 is 8.70.

On to `C#C[C@@]1(O)[C@@H](COC(Cc2ccsc2)(C(=O)O)c2cscn2)O[C@@H](n2cnc3c(NC(C)C)nc(Cl)nc32)[C@@H]1O` (stereo partly drawn) [Example 169, 2-(((2R,3S,4R,5R)-5-(2-chloro-6-(isopropylamino)-9H-purin-9-yl)-3-ethynyl-3,4-dihydroxytetrahydrofuran-2-yl)methoxy)-2-(thiazol-4-yl)-3-(thiophen-3-yl)propanoic acid], for which the pIC50 is 6.79. With `C#C[C@@]1(O)[C@@H](COC(Cc2nc3ccccc3s2)(C(=O)O)C(=O)O)O[C@@H](n2cnc3c(NCc4ccc(F)cc4)nc(Cl)nc32)[C@@H]1O` [Example 112, 2-(benzo[d]thiazol-2-ylmethyl)-2-(((2R,3S,4R,5R)-5-(2-chloro-6-((4-fluorobenzyl)amino)-9H-purin-9-yl)-3-ethynyl-3,4-dihydroxytetrahydrofuran-2-yl)methoxy)malonic acid] the figure was 5.87; with `C#C[C@@]1(O)[C@@H](CO[C@H](Cc2ccc(N3CCCNC3=O)cc2)C(=O)O)O[C@@H](n2cnc3c(N)nc(Cl)nc32)[C@@H]1O` (single isomer, unassigned) [Example 166], 6.84. On to `C#C[C@@]1(O)[C@@H](COC(Cc2ccc(-c3cccn(C)c3=O)cc2)(C(=O)O)C(=O)O)O[C@@H](n2cnc3c(N)nc(Cl)nc32)[C@@H]1O` [Example 162, 2-(((2R,3S,4R,5R)-5-(6-amino-2-chloro-9H-purin-9-yl)-3-ethynyl-3,4-dihydroxytetrahydrofuran-2-yl)methoxy)-2-(4-(1-methyl-2-oxo-1,2-dihydropyridin-3-yl)benzyl)malonic acid], for which the pIC50 was 9.38.

For the origin of these results see patent publication US11078228B2, “Ectonucleotidase inhibitors and methods of use thereof” (Calithera Biosciences, Inc., priority 2018, dated 2021).
